The source of these data is patent publication US9562031B1, “Phenethyldihydrobenzodioxolones and methods of use” (Sequoia Sciences, Inc., priority 2015, dated 2017).

Test [1] concerns NCI-H460 (large cell lung carcinoma) cells. Nature of the test: antiproliferation assay (72 h, CELLTITER 96), NCI-H460. It counts as cell-based, human. Conditions: read-out: NCI-H460 IC50. A digest of the protocol:
(§1)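 Human M14 melanoma and NCI-H460 lung carcinoma cells in RPMI-1640/10% FBS, seeded at 5×10^2–5×10^4 cells/well and adhered overnight, then exposed to seven compound concentrations for 72 h at 37 °C. Viable cells read by CellTiter 96 AQueous (MTS); IC50 = concentration giving 50% of maximal growth inhibition.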

Test [2] relates to M14 (amelanotic melanoma) cells. Nature of the test: antiproliferation assay (72 h, CELLTITER 96), M14. It counts as cell-based, human. A digest of the protocol:
as §1

Where [3] appears, read: Homo sapiens, NCI-H460, Table 4.
Where [4] appears, read: Homo sapiens, NCI-H460, Table 5.
The mark [5] stands for this setting: Homo sapiens, NCI-H460, Table 7.

pIC50: −log10 of the molar value. Where two headings read alike, the source gives them in different places.

Usually pIC50 stands for −log10 of the IC50, conventionally taken in molar units. Regarding `C=CC[C@H]1C[C@]2([C@@H](C)Cc3cc(-c4nnn[nH]4)c(OC)cc3F)OCOC2=CC1=O` [Compound 95, (6S,7aR)-6-allyl-7a-((S)-1-(2-fluoro-4-methoxy-5-(1H-tetrazol-5-yl)phenyl)propan-2-yl)-7,7a-dihydrobenzo[d][1,3]dioxol-5(6H)-one], the pIC50 was less than 4.70 in test [1] (Homo sapiens, NCI-H460, Table 3) and less than 4.70 in test [2] (Homo sapiens, Table 3).
`C=CCC1C[C@]2([C@@H](C)Cc3ccc(OC)c(C(C)=O)c3)OCOC2=CC1=O` (stereo partly drawn) [Compound 96, (7aR)-7a-((S)-1-(3-acetyl-4-methoxyphenyl)propan-2-yl)-6-allyl-7,7a-dihydrobenzo[d][1,3]dioxol-5(6H)-one]: the pIC50 in test [1] (setting [3]) was less than 4.70; in test [2] (Homo sapiens, Table 4), less than 4.70.
For the molecule `C=CC[C@H]1C[C@]2([C@H](C)Cc3ccc(OC)c(N(C)C)c3)OCOC2=CC1=O` [Compound 97, (6S,7aR)-6-allyl-7a-((R)-1-(3-(dimethylamino)-4-methoxyphenyl)propan-2-yl)-7,7a-dihydrobenzo[d][1,3]dioxol-5(6H)-one], the pIC50 is less than 4.70 in test [1] (setting [3]) and less than 4.70 in test [2] (Homo sapiens, Table 4).
For `C=CC[C@H]1C[C@]2([C@@H](C)Cc3ccc(O)cc3)OCOC2=CC1=O` [Compound 99, (6S,7aR)-6-allyl-7a-((S)-1-(4-hydroxyphenyl)propan-2-yl)-7,7a-dihydrobenzo[d][1,3]dioxol-5(6H)-one], the pIC50 in test [1] (setting [4]) is less than 4.70; in test [2] (Homo sapiens, Table 5), less than 4.70.
Turning to `C=CC[C@H]1C[C@]2([C@@H](C)Cc3ccc(OC(C)=O)cc3)OCOC2=CC1=O` [Compound 100, 4-((S)-2-((3aR,5S)-5-allyl-6-oxo-3a,4,5,6-tetrahydrobenzo[d]dioxol-3a-yl)propyl)phenyl acetate], the pIC50 was less than 4.70 in test [1] (setting [4]) and less than 4.70 in test [2] (Homo sapiens, Table 5).
As for `C=CC[C@H]1C[C@]2([C@H](C)Cc3ccc(OCCOC)c(F)c3)OCOC2=CC1=O` [Compound 101, (6S,7aR)-6-allyl-7a-((R)-1-(3-fluoro-4-(2-methoxyethoxy)phenyl)propan-2-yl)-7,7a-dihydrobenzo[d][1,3]dioxol-5(6H)-one], the pIC50 in test [1] (setting [4]) was less than 4.70; in test [2] (Homo sapiens, Table 5) it was less than 4.70.
For the molecule `C=CC[C@H]1C[C@]2([C@@H](C)Cc3ccc(NC(C)=O)c(F)c3)OCOC2=CC1=O` [Compound 102, N-(4-((S)-2-((3aR,55)-5-allyl-6-oxo-3a,4,5,6-tetrahydrobenzo[d][1,3]dioxol-3a-yl)propyl)-2-fluorophenyl)acetamide], the pIC50 in test [1] (Table 5) and in test [2] (Table 5) was less than 4.70 throughout.
Consider `C=CC[C@H]1C[C@]2([C@@H](C)Cc3ccc(N(C)C(C)=O)cc3)OCOC2=CC1=O` [Compound 103, N-(4-((S)-2-((3aR,5S)-5-allyl-6-oxo-3a,4,5,6-tetrahydrobenzo[d][1,3]dioxol-3a-yl)propyl)phenyl)-N-methylacetamide], for which the pIC50 in test [1] (setting [4]) was less than 4.70; in test [2] (Homo sapiens, Table 5), less than 4.70.
Take `COc1cc(F)c(C[C@H](C)[C@]23CCC(=O)C=C2OCO3)cc1O` [Compound 104, (R)-7a-((S)-1-(2-fluoro-5-hydroxy-4-methoxyphenyl)propan-2-yl)-7,7a-dihydrobenzo[d][1,3]dioxol-5(6H)-one]: the pIC50 was less than 4.70 in test [1] (setting [5]) and less than 4.70 in test [2] (Homo sapiens, Table 7).
Take `COc1ccc(CC(C)[C@]23CC(CC(C)=O)C(=O)C=C2OCO3)cc1OC` (stereo partly shown) [Compound 106]: the pIC50 in test [1] (setting [5]) was less than 4.70; in test [2] (Homo sapiens, Table 7) it was less than 4.70.
On to `COc1ccc(CC(C)[C@]23C[C@H](CCCF)C(=O)C=C2OCO3)cc1OC` (stereo partly drawn) [Compound 107, (6S,7aR)-7a-(1-(3,4-dimethoxyphenyl)propan-2-yl)-6-(3-fluoropropyl)-7,7a-dihydrobenzo[d][1,3]dioxol-5(6H)-one], for which the pIC50 in test [1] (setting [5]) was less than 4.70; in test [2] (Homo sapiens, Table 7), less than 4.70.
With `COc1cc(F)c(C[C@H](C)[C@]23C[C@H](CC(C)O)C(=O)C=C2OCO3)cc1O` (stereo partly drawn) [Compound 109, (6S,7aR)-7a-((S)-1-(2-fluoro-5-hydroxy-4-methoxyphenyl)propan-2-yl)-6-(2-hydroxypropyl)-7,7a-dihydrobenzo[d][1,3]dioxol-5(6H)-one], the negative-log IC50 (pIC50) in test [1] (setting [5]) is 5.82; in test [2] (Homo sapiens, Table 7), 6.19.
As to `C=C[C@H](C)[C@H]1C[C@]2([C@@H](C)Cc3ccc(OC)cc3F)OCOC2=CC1=O` [Compound 110, (6R,7aR)-6-((S)-but-3-en-2-yl)-7a-((S)-1-(2-fluoro-4-methoxyphenyl)propan-2-yl)-7,7a-dihydrobenzo[d][1,3]dioxol-5(6H)-one], the pIC50 was 6.89 in test [1] (setting [5]) and 6.54 in test [2] (Homo sapiens, Table 7).
The like results for `COc1cc(F)c(C[C@H](C)[C@]23C[C@H](CC(C)=O)C(=O)C=C2OCO3)cc1O` [Compound 111, (6R,7aR)-7a-((S)-1-(2-fluoro-5-hydroxy-4-methoxyphenyl)propan-2-yl)-6-(2-oxopropyl)-7,7a-dihydrobenzo[d][1,3]dioxol-5(6H)-one] were, in that order, 4.82 and 5.15.
On the same counts, the results for `C=C[C@@H](C)[C@H]1C[C@]2([C@@H](C)Cc3ccc(OC)cc3F)OCOC2=CC1=O` [Compound 112, (6R,7aR)-6-((R)-but-3-en-2-yl)-7a-((S)-1-(2-fluoro-4-methoxyphenyl)propan-2-yl)-7,7a-dihydrobenzo[d][1,3]dioxol-5(6H)-one] are 7.17 and 7.36.
On the same counts, the results for `COc1cc(F)c(C[C@H](C)[C@]23C[C@H](Cc4ccco4)C(=O)C=C2OCO3)cc1O` [Compound 113, (6S,7aR)-7a-((S)-1-(2-fluoro-5-hydroxy-4-methoxyphenyl)propan-2-yl)-6-(furan-2-ylmethyl)-7,7a-dihydrobenzo[d][1,3]dioxol-5(6H)-one] are 5.60 and 5.80.
Regarding `COc1cc(F)c(C[C@H](C)[C@]23C[C@H](Cc4ccncc4)C(=O)C=C2OCO3)cc1O` [Compound 114, (6S,7aR)-7a-((S)-1-(2-fluoro-5-hydroxy-4-methoxyphenyl)propan-2-yl)-6-(pyridin-4-ylmethyl)-7,7a-dihydrobenzo[d][1,3]dioxol-5(6H)-one], the pIC50 is 5.70 in test [1] (setting [5]) and 5.46 in test [2] (Homo sapiens, Table 7).
Regarding `CCS[C@H]1C[C@]2([C@@H](C)Cc3ccc(OC)cc3F)OCOC2=CC1=O` [Compound 115, (6S,7aR)-6-(ethylthio)-7a-((S)-1-(2-fluoro-4-methoxyphenyl)propan-2-yl)-7,7a-dihydrobenzo[d][1,3]dioxol-5(6H)-one], the pIC50 was less than 4.70 in test [1] (setting [5]) and 4.95 in test [2] (Homo sapiens, Table 7).
With `C=CC[C@H]1C[C@]2([C@@H](C)Cc3cc(F)c(SC)cc3F)OCOC2=CC1=O` [Compound 116, (6S,7aR)-6-allyl-7a-((S)-1-(2,5-difluoro-4-(methylthio)phenyl)propan-2-yl)-7,7a-dihydrobenzo[d][1,3]dioxol-5(6H)-one], the pIC50 was 6.72 in test [1] (setting [4]) and 6.92 in test [2] (Homo sapiens, Table 5).
As to “(6S,7aR)-6-allyl-7a-((S)-1-(2-fluoro-4-methoxy-5-morpholinophenyl)propan-2-yl)-7,7a-dihydrobenzo[d][1,3]dioxol-5(6H)-one [Compound 98]”, the pIC50 in test [1] (Table 4) and in test [2] (Table 4) was less than 4.70 in each case.
